In patent US20240366649A1, “4-ETHYNYL-3-HYDROXY-TETRAHYDROFURANYL-ADENINE PHOSPHORAMIDATES AND RELATED COMPOUNDS AND THEIR USE IN TREATING MEDICAL CONDITIONS” (ROME THERAPEUTICS, INC., priority 2021, published 2024):
Several values for one entry are separate records, joined by “and”; a condition that tells them apart may be missing. Identical values can stand only once.

Columns and labels:
Assay type in all cases: cell-based
[1] = biological target: T1, LINE1 reverse transcriptase (Homo sapiens, UniProt O00370); assay: Transient artificial-intron Cis LINE1 reporter assay; parameters: expressed in transfected cells; conditions: HEK 293 cells; ratio FLuc/RLuc reports LINE1 activity; tested up to 100 μM; read-out: IC50 for inhibiting FLuc luminescence
T1 sequence (O00370 whole entry, looked up): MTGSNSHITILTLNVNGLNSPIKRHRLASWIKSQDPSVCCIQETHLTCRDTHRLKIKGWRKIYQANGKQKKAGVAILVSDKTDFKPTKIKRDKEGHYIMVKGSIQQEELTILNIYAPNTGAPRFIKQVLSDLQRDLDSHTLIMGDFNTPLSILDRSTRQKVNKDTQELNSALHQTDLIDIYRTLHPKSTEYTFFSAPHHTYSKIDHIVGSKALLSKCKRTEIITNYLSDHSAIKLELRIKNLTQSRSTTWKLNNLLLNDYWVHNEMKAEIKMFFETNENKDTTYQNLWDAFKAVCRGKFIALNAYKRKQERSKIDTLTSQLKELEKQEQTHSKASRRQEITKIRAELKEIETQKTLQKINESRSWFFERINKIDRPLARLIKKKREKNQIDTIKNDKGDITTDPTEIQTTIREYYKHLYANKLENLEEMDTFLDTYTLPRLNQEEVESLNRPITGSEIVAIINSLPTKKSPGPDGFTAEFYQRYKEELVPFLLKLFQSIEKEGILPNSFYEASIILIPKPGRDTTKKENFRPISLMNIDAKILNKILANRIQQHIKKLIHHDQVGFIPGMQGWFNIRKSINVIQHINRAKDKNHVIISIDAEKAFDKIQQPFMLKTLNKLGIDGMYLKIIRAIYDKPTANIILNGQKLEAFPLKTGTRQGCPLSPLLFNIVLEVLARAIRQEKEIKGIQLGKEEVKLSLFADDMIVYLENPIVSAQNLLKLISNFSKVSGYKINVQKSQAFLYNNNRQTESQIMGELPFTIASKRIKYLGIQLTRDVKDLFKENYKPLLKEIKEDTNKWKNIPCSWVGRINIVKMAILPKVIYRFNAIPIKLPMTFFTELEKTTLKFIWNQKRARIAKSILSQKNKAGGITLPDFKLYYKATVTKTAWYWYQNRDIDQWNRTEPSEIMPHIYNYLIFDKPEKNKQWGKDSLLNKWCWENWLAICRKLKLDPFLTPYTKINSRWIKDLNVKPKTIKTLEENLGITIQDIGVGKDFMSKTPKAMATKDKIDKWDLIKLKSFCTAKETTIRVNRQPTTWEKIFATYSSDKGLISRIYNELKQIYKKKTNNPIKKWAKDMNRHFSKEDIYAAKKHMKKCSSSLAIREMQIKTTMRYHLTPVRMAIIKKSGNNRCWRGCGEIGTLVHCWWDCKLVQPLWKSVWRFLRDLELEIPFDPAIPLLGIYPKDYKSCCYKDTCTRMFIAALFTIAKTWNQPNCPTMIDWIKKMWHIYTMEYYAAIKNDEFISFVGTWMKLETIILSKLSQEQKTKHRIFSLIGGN
Description: Intron-disrupted Firefly luciferase (FLuc) expression cassettes were generated as described by Xie, Y. et al. “Characterization of L1 retrotransposition with high-throughput dual-luciferase assays,” Nucleic Acid Res. (2011) Vol. 39, No. 3, e16. In addition, the plasmid contained an intact Renilla luciferase (RLuc) expression cassette on the vector backbone, in order to normalize transfection efficiency and measure potential cell toxicity.
HEK 293 cells were seeded in 96-well plates at 1,000 cells/well in 55 μL and grown for 24 hours. Cells were transfected with FuGeneHD (Promega) following the manufacturer's protocol. Each well received 0.133 ng plasmid, 0.4 μL FuGeneHD reagent, and 4.5 μL GlutaMAX-I-supplemented Opti-MEM I reduced-serum medium (Invitrogen). Cells were simultaneously treated with test compound serially diluted starting at 100 μM in a 3-fold dilution dose response.
Luminescence was measured using the Dual-Glo Luciferase Assay System (Promega) following the manufacturer's instructions. The ratio between FLuc and RLuc gene expression was used to report LINE1 activity.

[2] = system: IFN production in THP1 TREX1 KO cells; assay: Cellular assay for altering IFN production in THP1 TREX1 KO cells; conditions: for change in IFN levels (figure): FIG. 6-8, % induction versus compound concentration; for EC50 / IC50: Homo sapiens; for Concentration at Max Induct.: lowest concentration at which the maximum-fold IFN induction was observed; for Maximum IFN Induction: maximum-fold IFN induction, 1 μM 5-aza-2′-deoxycytidine; for IC50: inhibitors of IFN
Description: (§1) THP1-Dual™ KO-TREX1 cells were purchased from Invivogen (cat #thpd-kotrex). The THP1-Dual™ KO-TREX1 cells were cultured in RPMI 1640, 10% heat-inactivated fetal bovine serum, 25 mM HEPES, 10 μg/mL Blasticidin, and […] Zeocin. THP1-Dual™ KO-TREX cells were treated with a dose titration of test compound in the presence of 1 μM 5-aza-2′-deoxycytidine (Sigma, cat #189825). Type 1 Interferon and cell viability were assessed after five days of treatment.
Stock solution of test compound was prepared in DMSO followed by a three-fold dilution in DMSO. Additional 50× dilution was prepared in cell culture media for each dilution. 10 μL of diluted test compound was then added to a 384-well plate.
(§2) THP1-Dual™ KO-TREX1 cells were treated with 1 μM 5-aza-2′-deoxycytidine. THP1-Dual™ KO-TREX1 cells (50 μL) were added to each well of the 384-well plate containing test compound titration at 10,000 cells/well. Cells were incubated at 37° C., 5% CO2 in a humidified incubator for five days. On day five, 20 μL of cell supernatant was transferred to a 384-well, white-walled plate, followed by addition to each well of 50 μL of QUANTI-LUC solution containing stabilizer. Luminescence was detected on a plate reader according to manufacturer's instructions.
(§3) For certain compounds, the assay was run in a 96-well format, with the following modifications: • 190 μL, instead of 50 μL, of cells were added to each well, to provide 50,000 cells/well, instead of 10,000 cells/well, • Cells were incubated for 6 days, instead of 5 days, • 25 μL, instead of 20 μL, of cell supernatant was added to the white-walled plate for QUANT-LUC treatment; and • 25 μL, instead of 30 μL, of CellTiter-Glo was added to assess cell viability.
Percent inhibition of interferon was calculated using the following analysis: (Average DMSO-Sample)/(Average DMSO-Average 30 μM control reagent)*100. The control reagent for inhibition of interferon was a specific nucleoside reverse-transcriptase inhibitor with molecular weight <600 a.m.u. Percent induction of interferon was calculated using the following analysis: (Sample-Average DMSO)/(10 μM control reagent-Average DMSO)*100. The control reagent for induction of interferon was compound 8 (4′-ethynyl-2-chloro-2′-deoxyadenosine).

[3] = biological target: T1, LINE1 reverse transcriptase; assay: Stable artificial-intron Cis LINE1 reporter assay; parameters: expressed in transfected cells; conditions: HeLa L1 artificial-intron reporter cells, doxycycline-induced, 72 h, Firefly luciferase activity
Description: A stable HeLa Tet-On 3G (Takara, cat no 631183) cell line expressing a bi-directional inducible LINE1 construct was generated as described in Xie, Y. et al. “Cell division promotes efficient retrotransposition in a stable L1 reporter cell line,” Mobile DNA (2013) 4:10. Single cell clones were screened for high Luciferase expression and the highest expression Firefly expressing clone was chosen for compound testing.
Test compounds were serially diluted in DMSO and spotted in 96-well plates. Subsequently the HeLa L1 artificial-intron reporter cells were plated into the compound-containing wells (8,000 cells/well), and the cells were induced for reporter expression with doxycycline (Sigma cat no D9891) at a final concentration of 500 ng/mL. Luminescence was measured 72 h after plating using the Dual-Glo Luciferase Assay System (Promega cat no E2940) following the manufacturer's instructions. The Firefly Luciferase activity (normalized against its activity in a control well without test compound) was used to report LINE1 activity.

[4] = system: THP1-Dual™ KO-TREX1 cells; assay: CellTiter-Glo cell viability in THP1-Dual KO-TREX1 cells; conditions: Homo sapiens, 120 h, CellTiter-Glo inhibition of cell viability, after five days of treatment, read-out: CTG IC50
Description: as §1, §2, §3
The remaining cells were assessed for cell viability by adding 30 μl of CellTiter-Glo (Promega, G9683) solution to each well, and placed on a shaker for 10 minutes at room temperature. Luminescence was detected on a plate reader, according to manufacturer's instructions. Percent inhibition of cell viability using CellTiter-Glo was calculated using the following analysis: (Average DMSO-Sample)/(Average DMSO-Average 20 μM control reagent)*100. The control reagent was Z-Leu-Leu-leucinal (see, for example, https://pubchem.ncbi.nlm.nib.gov/compound/462382).

[5] = THP-1, 120 h, inducers of IFN, in the presence of 1 μM 5-aza-2′-deoxycytidine, five days
[6] = THP-1, another experiment testing the same compound (not the one of Table 7)
[7] = THP-1, 120 h, in the presence of 1 μM 5-aza-2′-deoxycytidine, five days

| SMILES | IC50 [1] [nM] | IC50 [3] | EC50 [2, 5] [nM] | IC50 [4] [nM] | further results |
| --- | --- | --- | --- | --- | --- |
| C#C[C@]1(CO)O[C@@H](n2cnc3c(N)ncnc32)C[C@@H]1O [4′-ethynyl-2′-deoxyadenosine, reference compound] | 41 | ≤ 50 nM |  |  | change in IFN levels (figure) [2]: induction of IFN |
| Cc1cn([C@H]2C[C@H](N=[N+]=[N-])[C@@H](CO)O2)c(=O)[nH]c1=O [AZT (zidovudine), Zidovudine, reference compound] | > 100000 | > 500 nM |  |  |  |
| C#C[C@]1(CO)O[C@@H](n2cnc3c(N)nc(Cl)nc32)C[C@@H]1O [Compound 8, 4′-ethynyl-2-chloro-2′-deoxyadenosine, reference compound] | 8.3 | ≤ 50 nM |  |  | change in IFN levels (figure) [2]: induction of IFN |
| C#C[C@]1(CO[P@@](=O)(N[C@@H](C)C(=O)OC(C)C)Oc2ccccc2)O[C@@H](n2cnc3c(N)nc(Cl)nc32)C[C@@H]1O [Compound I-1, Isopropyl ((S)-(((2R,3S,5R)-5-(6-amino-2-chloro-9H-purin-9-yl)-2-ethynyl-3-hydroxytetrahydrofuran-2-yl)methoxy)(phenoxy)phosphoryl)-L-alaninate] |  | 50 to 500 nM and ≤ 50 nM | 1000 to 10000 | > 10000 | Concentration at Max Induct. [2]: 10 µM; Maximum IFN Induction ([2]; five days): >> (values from 1.50 to 2.00) |
| C#C[C@]1(CO[P@@](=O)(N[C@@H](C)C(=O)OC(C)C)Oc2ccccc2)O[C@@H](n2cnc3c(N)nc(F)nc32)C[C@@H]1O [Compound I-18] |  | 50 to 500 nM | > 10000 |  |  |
| C#C[C@]1(CO[P@](=O)(N[C@@H](C)C(=O)OC(C)C)Oc2ccccc2)O[C@@H](n2cnc3c(N)nc(F)nc32)C[C@@H]1O [Compound I-54] |  | ≤ 50 nM | < 1000 | > 10000 | EC50 [2, 6]: > 10000 nM |
| C#C[C@]1(COP(=O)(N[C@@H](C)C(=O)OC(C)C)OCOC(=O)OC(C)C)O[C@@H](n2cnc3c(N)nc(Cl)nc32)C[C@@H]1O (stereo partly drawn) [I-14 and I-15, isopropyl (2S)-2-({[(2R,3S,5R)-5-(6-amino-2-chloropurin-9-yl)-2-ethynyl-3-hydroxyoxolan-2-yl]methoxy([(isopropoxycarbonyl)oxy]methoxy)phosphoryl}amino)propanoate] |  | > 500 nM |  |  |  |
| Nc1ccn([C@H]2CO[C@@H](CO)S2)c(=O)n1 [apricitabine] | > 100000 |  |  |  |  |
| Nc1ccn([C@@H]2CS[C@H](CO)O2)c(=O)n1 [lamivudine (3TC), Lamivudine, reference compound] | > 100000 | > 500 nM |  |  |  |
| Nc1nc(=O)c2ncn([C@@H]3C[C@H](CO)[C@H]3CO)c2[nH]1 [lobucavir, reference compound] | > 100000 | > 500 nM |  |  |  |

More lines, main results first:

| IC50 [1] [nM] | IC50 [3] | EC50 [2, 5] [nM] | IC50 [4] [nM] | SMILES | further results |
| --- | --- | --- | --- | --- | --- |
|  | ≤ 50 nM | 1000 to 10000 | > 10000 | C#C[C@]1(COP(=O)(O)N[C@@H](C)C(=O)OC(C)C)O[C@@H](n2cnc3c(N)nc(Cl)nc32)C[C@@H]1O [Compound I-47, [(2R,3S,5R)-5-(6-amino-2-chloropurin-9-yl)-2-ethynyl-3-hydroxyoxolan-2-yl]methoxy([(2S)-1-isopropoxy-1-oxopropan-2-yl]amino)phosphinic acid] | EC50 ([2]; THP-1, experiment depicted in FIG. 11 / FIG. 12): < 1000 nM; EC50 [2, 6]: > 10000 nM; Concentration at Max Induct. [2]: 10 µM; Maximum IFN Induction ([2]; five days): >>> (values greater than 2.00) |
|  | ≤ 50 nM | 1000 to 10000 | > 10000 | C#C[C@]1(COP(=O)(O)N[C@H](C)C(=O)OC(C)C)O[C@@H](n2cnc3c(N)nc(Cl)nc32)C[C@@H]1O [Compound I-48] | Concentration at Max Induct. [2]: 10 µM; Maximum IFN Induction ([2]; five days): > (values from 1.00 to less than 1.50) |
|  | ≤ 50 nM | > 10000 |  | C#C[C@]1(COP(=O)(O)N[C@@H](C)C(=O)OC(C)C)O[C@@H](n2cnc3c(N)nc(F)nc32)C[C@@H]1O [Compound I-49] |  |
|  | 50 to 500 nM |  |  | C#C[C@]1(COP(=O)(O)N[C@H](C)C(=O)OC(C)C)O[C@@H](n2cnc3c(N)nc(F)nc32)C[C@@H]1O [Compound I-50] |  |
|  | 50 to 500 nM |  |  | C#C[C@@]12COP(=O)(OC(C)C)O[C@H]1C[C@H](n1cnc3c(N)nc(Cl)nc31)O2 (some centres unmarked) [IV-1] |  |
|  | 50 to 500 nM | > 10000 |  | C#C[C@@]12COP(=O)(N[C@H](C)C(=O)OC(C)C)O[C@H]1C[C@H](n1cnc3c(N)nc(Cl)nc31)O2 (some centres unmarked) [IV-5] |  |
|  | 50 to 500 nM |  | 3100 | C#C[C@@]12COP(=O)(N[C@@H](C)C(=O)OC(C)C)O[C@H]1C[C@H](n1cnc3c(N)nc(Cl)nc31)O2 (stereo partly drawn) [IV-6, isopropyl (2S)-2-{[(4aR,6R,7aS)-6-(6-amino-2-chloropurin-9-yl)-4a-ethynyl-2-oxo-tetrahydro-2lambda5-furo[3,2-d][1,3,2]dioxaphosphinin-2-yl]amino}propanoate] | IC50 [2, 7]: < 1000 nM |
|  | ≤ 50 nM |  |  | C#C[C@@]12COP(=O)(OC(C)C)O[C@H]1C[C@H](n1cnc3c(N)nc(F)nc31)O2 (some centres unmarked) [IV-10] |  |
|  | 50 to 500 nM |  | > 10000 | C#C[C@@]12COP(=O)(N[C@H](C)C(=O)OC(C)C)O[C@H]1C[C@H](n1cnc3c(N)nc(F)nc31)O2 (some centres unmarked) [IV-12] | IC50 [2, 7]: 1000 to 5000 nM |
|  | 50 to 500 nM |  | 2500 | C#C[C@@]12COP(=O)(N[C@@H](C)C(=O)OC(C)C)O[C@H]1C[C@H](n1cnc3c(N)nc(F)nc31)O2 (some centres unmarked) [IV-13] | IC50 [2, 7]: < 1000 nM |
